Experimental data published in US20040147545A1, “Derivatives of oxazolidinones as antibacterial agents” (priority 2001, published 2004).
Converted amounts (≈) assume the structure as drawn.

How the values were obtained:
Type in all cases: cell-based
[1] = system: S. aureus resistant to meticillin; assay: Antibacterial activity, microdilution in culture broth (NCCLS), strain A; settings: Staphylococcus aureus, G (+) hospital strain, inoculum 5×10^5 UFC/ml
Excerpt: (§1) The antibacterial activity of the new synthesised compounds on the various strains of the bacterial species was implemented using the technique of microdilution in culture broth according to the regulations of the National Committee for Clinical Laboratory Standards (NCCLS), (NCCLS. 1993. Methods for dilution antimicrobial susceptibility tests for bacteria that grow aerobically. Approved standard M7-A3. NCCLS, Vilanova. Pa., and NCCLS. 1993. Methods for dilution antimicrobial susceptibility tests for anaerobic bacteria […]. Approved standard M1-A3. NCCLS, Vilanova. Pa.).
(§2) The inoculum used was 5×10^5 UFC/ml following dilution of the cultures overnight in the exponential phase of bacterial growth.
(§3) The MIC expressed in mg/l was defined as the minimum concentration of antibiotic which inhibited any visible growth.
(§4) Linezolid was included as comparative compound.
(§5) The compounds were tested on the strains of G(+) and G(−) bacteria set out in Table 1, in which: […]

[2] = system: E. faecalis resistant to vancomycin; assay: Antibacterial activity, microdilution in culture broth (NCCLS), strain B; settings: Enterococcus faecalis, G (+) hospital strain, inoculum 5×10^5 UFC/ml
Excerpt: as §1, §2, §3, §4, §5

[3] = system: S. pneumoniae resistant to penicillin; assay: Antibacterial activity, microdilution in culture broth (NCCLS), strain C; settings: Streptococcus pneumoniae, G (+) hospital strain, inoculum 5×10^5 UFC/ml
Excerpt: as §1, §2, §3, §4, §5

S. agalactiae = assay: Antibacterial activity, microdilution in culture broth (NCCLS), strain D; settings: Streptococcus agalactiae, G (+) hospital strain, inoculum 5×10^5 UFC/ml
Excerpt: as §1, §2, §3, §4, §5

S. epidermidis = assay: Antibacterial activity, microdilution in culture broth (NCCLS), strain E; settings: Staphylococcus epidermidis, G (+) hospital strain, inoculum 5×10^5 UFC/ml
Excerpt: as §1, §2, §3, §4, §5

S. pyogenes = assay: Antibacterial activity, microdilution in culture broth (NCCLS), strain F; settings: Streptococcus pyogenes, G (+) hospital strain, inoculum 5×10^5 UFC/ml
Excerpt: as §1, §2, §3, §5

B. fragilis = assay: Antibacterial activity, microdilution in culture broth (NCCLS), strain G (anaerobic); settings: Bacteroides fragilis, anaerobic hospital strain, inoculum 5×10^5 UFC/ml
Excerpt: as §1, §2, §3, §4, §5

E. coli = assay: Antibacterial activity, microdilution in culture broth (NCCLS), strain H; settings: Escherichia coli, G (−) hospital strain, inoculum 5×10^5 UFC/ml
Excerpt: as §1, §2, §3, §4, §5

H. influenzae = assay: Antibacterial activity, microdilution in culture broth (NCCLS), strain I; settings: Haemophilus influenzae, G (−) hospital strain, inoculum 5×10^5 UFC/ml
Excerpt: as §1, §2, §3, §4, §5

M. Catarrahalis = assay: Antibacterial activity, microdilution in culture broth (NCCLS), strain J; settings: G (−) hospital strain, inoculum 5×10^5 UFC/ml
Excerpt: as §1, §2, §3, §4, §5

Structure (SMILES) | MIC [1] | MIC [2] | MIC [3] | MIC (S. agalactiae) | MIC (S. epidermidis) | MIC (S. pyogenes) | MIC (B. fragilis) | MIC (E. coli) | MIC (H. influenzae) | MIC (M. Catarrahalis)
CC(=O)NC[C@H]1CN(c2ccc(N3CCN(c4c(F)cc5c(=O)c(C(=O)O)cn6c5c4OCC6C)CC3)c(F)c2)C(=O)O1 (stereo partly drawn) [EXAMP. 7, 9-(4-{4-[5-(S)-(acetylamino-methyl)-2-oxo-oxazolidin-3-yl]-2-fluoro-phenyl}-piperazin-1-yl)-8-fluoro-3-methyl-6-oxo-2,3-dihydro-6H-1-oxa-3a-aza-phenalene-5-carboxylic Acid] | 0.25 µg/mL (≈ 0.418 µM) | 0.5 µg/mL (≈ 0.837 µM) | 0.25 µg/mL (≈ 0.418 µM) | 0.5 µg/mL (≈ 0.837 µM) | 0.25 µg/mL (≈ 0.418 µM) | 0.25 µg/mL (≈ 0.418 µM) | 2 µg/mL (≈ 3.35 µM) | 8 µg/mL (≈ 13.4 µM) | 4 µg/mL (≈ 6.69 µM) | 1 µg/mL (≈ 1.67 µM)
CC(=O)NC[C@H]1CN(c2ccc(N(C)C3CCN(c4c(F)cc5c(=O)c(C(=O)O)cn6c5c4OCC6C)C3)c(F)c2)C(=O)O1 (stereo partly drawn) [EXAMP. 6, 9-[3-({4-[5-(S)-(acetylamino-methyl)-2-oxo-oxazolidin-3-yl]-2-fluoro-phenyl}-methyl-amino)-pyrrolidin-1-yl]-8-fluoro-3-methyl-6-oxo-2,3-dihydro-6H-1-oxa-3a-aza-phenalen-5-carboxylic Acid] | 2 µg/mL (≈ 3.27 µM) | 1 µg/mL (≈ 1.64 µM) | 1 µg/mL (≈ 1.64 µM) | 0.5 µg/mL (≈ 0.818 µM) | 0.5 µg/mL (≈ 0.818 µM) | 1 µg/mL (≈ 1.64 µM) | 16 µg/mL (≈ 26.2 µM) | 2 µg/mL (≈ 3.27 µM) | < 0.125 µg/mL | 0.25 µg/mL (≈ 0.409 µM)
CC(=O)NC[C@H]1CN(c2ccc(N3CCN(c4nc5c(cc4F)c(=O)c(C(=O)O)cn5-c4ccc(F)cc4F)CC3)c(F)c2)C(=O)O1 [EXAMP. 20, 7-(4-{4-[5-(S)-(acetylamino-methyl)-2-oxo-oxazolidin-3-yl]-2-fluoro-phenyl}-piperazin-1-yl)-1-(2,4-difluoro-phenyl)-6-fluoro-4-oxo-1,4-dihydro-[1,8]Naphthyridine-3-carboxylic Acid] | 1 µg/mL (≈ 1.53 µM) | 2 µg/mL (≈ 3.06 µM) | 1 µg/mL (≈ 1.53 µM) | 1 µg/mL (≈ 1.53 µM) | 0.5 µg/mL (≈ 0.764 µM) | 1 µg/mL (≈ 1.53 µM) | > 64 µg/mL | > 64 µg/mL | 2 µg/mL (≈ 3.06 µM) | 4 µg/mL (≈ 6.11 µM)
CNC(=S)NC[C@H]1CN(c2ccc(N3CCN(c4cc5c(cc4F)c(=O)c(C(=O)O)cn5C4CC4)CC3)c(F)c2)C(=O)O1 [EXAMP. 9, 1-cyclopropyl-6-fluoro-7-[4-(2-fluoro-4-{5-(S)-[(3-methyl-thioureido)-methyl]-2-oxo-oxazolidin-3-yl}-phenyl)-piperazin-1-yl]-4-oxo-1,4-dihydro-quinoline-3-carboxylic Acid] | < 0.125 µg/mL | < 0.125 µg/mL | < 0.125 µg/mL | < 0.125 µg/mL | < 0.125 µg/mL | < 0.125 µg/mL | 0.5 µg/mL (≈ 0.816 µM) | > 64 µg/mL | 1 µg/mL (≈ 1.63 µM) | 0.25 µg/mL (≈ 0.408 µM)
CCOC(=O)c1cn(C2CC2)c2nc(N3CCN(c4ccc(N5C[C@H](CNC(C)=O)OC5=O)cc4F)CC3)c(F)cc2c1=O [EXAMP. 16, 7-(4-{4-[5-(S)-(acetylamino-methyl)-2-oxo-oxazolidin-3-yl]-2-fluoro-phenyl}-piperazin-1-yl)-1-cyclopropyl-6-fluoro-4-oxo-1,4-dihydro-[1,8]Naphthyridine-3-carboxylic Acid Ethyl Ester] | 4 µg/mL (≈ 6.55 µM) | 2 µg/mL (≈ 3.28 µM) | 1 µg/mL (≈ 1.64 µM) | 1 µg/mL (≈ 1.64 µM) | 2 µg/mL (≈ 3.28 µM) | 1 µg/mL (≈ 1.64 µM) | 8 µg/mL (≈ 13.1 µM) | > 64 µg/mL | > 64 µg/mL | 8 µg/mL (≈ 13.1 µM)
CCNC(=O)NC[C@H]1CN(c2ccc(N3CCN(c4cc5c(cc4F)c(=O)c(C(=O)O)cn5C4CC4)CC3)c(F)c2)C(=O)O1 [EXAMP. 10, 1-cyclopropyl-7-[4-(4-{5-(S)-[(3-ethyl-ureido)-methyl]-2-oxo-oxazolidin-3-yl}-2-fluoro-phenyl)-piperazin-1-yl]-6-fluoro-4-oxo-1,4-dihydro-quinoline-3-carboxylic Acid] | 1 µg/mL (≈ 1.64 µM) | 2 µg/mL (≈ 3.28 µM) | 1 µg/mL (≈ 1.64 µM) | 1 µg/mL (≈ 1.64 µM) | 0.25 µg/mL (≈ 0.409 µM) | 1 µg/mL (≈ 1.64 µM) | 4 µg/mL (≈ 6.55 µM) | 64 µg/mL (≈ 105 µM) | 4 µg/mL (≈ 6.55 µM) | 2 µg/mL (≈ 3.28 µM)
CCn1cc(C(=O)O)c(=O)c2cc(F)c(N3CCN(c4ccc(N5C[C@H](CNC(C)=O)OC5=O)cc4F)CC3)c(F)c21 [EXAMP. 3, 7-(4-{4-[5-(S)-(acetylamino-methyl)-2-oxo-oxazolidin-3-yl]-2-fluoro-phenyl}-piperazin-1-yl)-1-ethyl-6,8-difluoro-4-oxo-1,4-dihydro-quinoline-3-carboxylic Acid] | < 0.125 µg/mL | < 0.125 µg/mL | < 0.125 µg/mL | < 0.125 µg/mL | < 0.125 µg/mL | < 0.125 µg/mL | 0.5 µg/mL (≈ 0.851 µM) | 64 µg/mL (≈ 109 µM) | 4 µg/mL (≈ 6.81 µM) | 0.5 µg/mL (≈ 0.851 µM)
